Assay results: patent US4260630A, “Skin diseases” (priority 1977, dated 1981)

How the values were obtained:
lymphocytes = conditions: therapeutic treatment; cited from earlier work
skin [1] = conditions: short treatment intervals; cited from earlier work
skin [2] = test: Erythema, skin injury and tanning on skin of patients; format: in vivo; conditions: compared with 8-MOP
Source text: In contrast, it has now been discovered that the mono-functional derivatives of formula I provoke absolutely no erythema, neither immediate nor postponed. No skin injury, neither macro- nor microscopic, was observed on patients. It will be readily apparent to men skilled in the art that this property is a very unique one for compounds of the psoralen family. […] Thus, undesirable cosmetic side effects appear to be absent. Consequently, these compounds are of great interest since, in contrast to 8-MOP, they permit subsequent treatment at short-time intervals for example twice a day over prolonged periods of time without any sun-burnlike injury to the skin.

mice = conditions: hairless mice; cited from earlier work
cutaneous tissue = conditions: in vivo; cited from earlier work
[3] = tested on: skin of homozygote albino mice strain XVII nc/Z; test: Chronic topical application on the ears of mice plus 365 nm UV irradiation (tumors, skin reactions); format: in vivo
Experimental: The experiments were effected on groups of 40 mice, male and female.
After 115 topical applications of psoralen, followed each time by 10 minutes of irradiation (cumulative doses of 2.07×10^6 J/m^2), 100% of the animals developed a tumor; 50% having tumors on two ears.
(§1) 3-CPs was also tested intraperitoneally (36 injections of 0.4 mg each over a period of 7 weeks).
In all these experiments the U.V. lamp was of the type of HPW 125 W, manufactured by Philips.

[4] = Intraperitoneal toxicity in mice; format: in vivo; conditions: i.p., 36 injections of 0.4 mg over 7 weeks
Experimental: as §1

[5] = Light sensitivity of the drug in aqueous solution (chromatography, fluorescence spectra); format: physicochemical
Saccharomyces cerevisiae = test: Uptake and removal of the drug in yeast (incubation time, washing); format: cell-based
Experimental: B--Effects of 365 nm light alone or 3-CPs, uptake and removal of the drug.
Since high doses of 365 nm light are needed to induce a killing effect in Saccharomyces cells in the presence of 3-CPs, the effects of 365 nm light alone were measured for doses up to 7500 J/m^2. It was established that, in the range of doses used for the biological experiments, there was only a small lethal effect of 365 nm light alone. Taking into account the standard errors of the surviving fraction (±10%) and the fact that part of the light energy is absorbed by the drug itself, the effect of 365 nm light alone has been neglected in the experiments.

psoriasis lesions = test: Treatment of psoriasis patients, 1% 3-CPs ointment plus 365 nm UV; format: in vivo; conditions: 1% ointment
Experimental: The effectiveness of thus-obtained 3-CPs was tested on 10 patients having ordinary psoriasis covering from 200 to 400 cm^2 of skin.
Preparation of 1% 3-CPs ointment:
1 g of 3-CPs was ground to a very fine powder and then dispersed in 70 g of "HYDROCERINE" (a commercially-available product manufactured by ROC) at 70° C. 29 ml of water were added at 70° C. in order to obtain an aqueous emulsion in oil.
The irradiation dose at 365 nm UV was of about 5 J/cm^2 per unit treatment and administered using the usual PUVA therapy set-up.

Structure (SMILES) | lymphocytes in circulating blood (lymphocytes) | erythemal reactions in the skin (skin [1]) | tanning effect (skin [2]) | cancerogenic power in combination with U.V. radiation (mice) | photosensitizing activity (cutaneous tissue) | erythema, cutaneous inflammation, tumor ([3]; 115 applications on two ears, 30 minutes rest, 10 minutes irradiation) | mortality ([3]; 115 applications, 450 days of observation) | macroscopic or microscopic reaction ([3]; 450 days of observation) | survival [4] | weight and signs of toxicity [4] | light sensitivity [5] | photoproduct ([5]; illuminated aqueous solutions) | binding in the dark (Saccharomyces cerevisiae) | effect after one minute incubation (Saccharomyces cerevisiae; 10 μg/ml, wild-type and rad9-4) | killing and "petite" induction vs incubation time before irradiation (Saccharomyces cerevisiae; 10 μg/ml, wild-type and rad9-4, constant 365 nm dose) | uptake and washing out compared with 8-MOP (Saccharomyces cerevisiae; Saccharomyces) | sensitizing effect after washing (Saccharomyces cerevisiae; doses of 365 nm light used) | erythema or cutaneous inflammation (psoriasis lesions) | speed of action compared with 8-MOP (psoriasis lesions)
COc1c2occc2cc2ccc(=O)oc12 [Example 8-MOP, 8-methoxypsoralen, reference compound] | causes a decrease of the lymphocytes in circulating blood | can cause violent erythemal reactions in the skin | strong tanning effect | high cancerogenic power | – | – | – | – | – | – | – | – | – | – | – | – | – | – | –
CCOC(=O)c1cc2cc3ccoc3cc2oc1=O [Example 3-CPs, 3-carboethoxypsoralen] | – | – | – | – | completely inactive | neither erythema nor cutaneous inflammation nor any tumor | No animal died | Neither macroscopic nor microscopic reaction was observed | All the animals remained alive | without any decrease in weight or other sign of toxicity | light sensitive | highly fluorescent photoproduct with the characteristics of 4',5'-dihydropsoralen | very loosely bound in the dark | about the maximum effect | independent of incubation time | taken up and washed out as readily as 8-MOP | no sensitizing effect after washing | no erythema or cutaneous inflammation | slower than that of 8-MOP
